Data set [1] deals with T1, Solute carrier family 2, facilitated glucose transporter member 1 (Homo sapiens) (UniProt P11166).
T1 sequence (whole entry): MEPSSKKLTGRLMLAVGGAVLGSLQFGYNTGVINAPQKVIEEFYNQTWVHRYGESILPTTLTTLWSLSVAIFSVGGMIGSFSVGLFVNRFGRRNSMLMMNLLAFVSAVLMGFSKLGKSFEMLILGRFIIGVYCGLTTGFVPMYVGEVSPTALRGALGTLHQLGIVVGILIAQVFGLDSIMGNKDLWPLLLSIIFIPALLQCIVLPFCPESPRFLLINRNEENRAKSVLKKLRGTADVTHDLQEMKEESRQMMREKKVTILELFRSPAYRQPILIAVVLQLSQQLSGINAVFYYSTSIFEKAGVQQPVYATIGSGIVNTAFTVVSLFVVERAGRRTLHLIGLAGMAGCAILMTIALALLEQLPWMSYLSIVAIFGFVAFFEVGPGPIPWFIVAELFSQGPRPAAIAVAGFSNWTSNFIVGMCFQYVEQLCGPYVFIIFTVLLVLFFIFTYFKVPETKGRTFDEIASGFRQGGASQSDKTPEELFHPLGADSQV
The data set is described as follows: Agonist activity at GLUTI (unknown origin). Conditions: filed as agonist.

In data set [2] the test system is MCF7. The data set is described as follows: Induction of apoptosis in human MCF7 cells assessed as late apoptotic cells at 10 uM incubated for 24 hrs by Annexin V-FITC/7AAD staining based flow cytometery (reference value: 0.68%). It is filed as functional. A general note: In flow cytometry, cells or beads pass a laser one at a time.
The subject of data set [3] is MCF7. Nature of the data set: Induction of cell cycle arrest in human MCF7 cells assessed as accumulation of cells at G2/M phase at 10 uM by propidium iodide staining based flow cytometry (reference value: 9.72%). The class given is functional. Particulars: time 30 min, 0.5 h.
Data set [4] has as its target T1, Solute carrier family 2, facilitated glucose transporter member 1 (Homo sapiens). Nature of the data set: Inhibition of GLUT1 in human MCF7 cells assessed as decrease in extracellular acidification rate at 5 to 20 uM measured for 24 hrs by Seahorse XFe96 analyzer. The class given is cell-based. Particulars: dose 5-20 µM.
The subject of data set [5] is MCF7. The data set is described as follows: Anticancer activity against human MCF7 cells assessed as increase in cell necrosis at 20 uM incubated for 48 hrs relative to control. It is filed as functional.
Data set [6] deals with MCF7. The data set is described as follows: Induction of oxidative stress in human MCF7 cells assessed as increase in intracellular ROS level at 5 to 20 uM incubated for 24 hrs. It is filed as functional, cell-based. Particulars: dose 5-20 µM.
Data set [7] deals with MCF7. Nature of the data set: Induction of oxidative stress in human MCF7 cells assessed as fold increase in intracellular ROS level at 20 uM incubated for 24 hrs. The class given is functional.
For data set [8], the system named is MCF7. Nature of the data set: Induction of apoptosis in human MCF7 cells assessed as early apoptotic cells at 10 uM incubated for 24 hrs by Annexin V-FITC/7AAD staining based flow cytometery (reference value: 0.50%). It is filed as functional.
The subject of data set [9] is MCF7. The data set is described as follows: Induction of apoptosis in human MCF7 cells assessed as late apoptotic cells at 20 uM incubated for 24 hrs by Annexin V-FITC/7AAD staining based flow cytometery (reference value: 0.68%). It is filed as functional.
A short description of data set [10]: Cytotoxicity against human MCF7 cells assessed as reduction in cell viability incubated for 24 hrs by MTT assay. It is filed as toxicity, cell-based.
Data set [11] addresses T1, Solute carrier family 2, facilitated glucose transporter member 1 (Homo sapiens). The data set is described as follows: Inhibition of GLUT1 in human MCF7 cells assessed as fold change at 10 uM by Western blot analysis. The class given is cell-based. (Immunoblotting shows a protein as a band on a membrane.)
In data set [12] the target is T2, Solute carrier family 2, facilitated glucose transporter member 1 (Homo sapiens, UniProt P11166).
T2 sequence (P11166 whole entry): T1 sequence (whole entry)
The data set is described as follows: Inhibition of GLUT1 in human MCF7 cells assessed as ATP production incubated for 24 hrs in presence of 10 mM glucose. The class given is cell-based.

For data set [13], the system named is MCF7. The data set is described as follows: Induction of apoptosis in human MCF7 cells assessed as viable cells at 10 uM incubated for 24 hrs by Annexin V-FITC/7AAD staining based flow cytometery (reference value: 98.8%). It is filed as functional. Conditions: read-out: Activity.
The target of data set [14] is T1, Solute carrier family 2, facilitated glucose transporter member 1 (Homo sapiens). Nature of the data set: Inhibition of GLUT1 in human MCF7 cells assessed as fold change at 20 uM by Western blot analysis. It is filed as cell-based.
Data set [15] deals with MCF7. Nature of the data set: Induction of apoptosis in human MCF7 cells assessed as early apoptotic cells at 20 uM incubated for 24 hrs by Annexin V-FITC/7AAD staining based flow cytometery (reference value: 0.50%). It is filed as functional.
For data set [16], the target named is T1, Solute carrier family 2, facilitated glucose transporter member 1 (Homo sapiens). The data set is described as follows: Inhibition of GLUT1 in human MCF7 cells assessed as fold change at 5 uM by Western blot analysis. The class given is cell-based.
The target in data set [17] is T2, Solute carrier family 2, facilitated glucose transporter member 1. Nature of the data set: Inhibition of GLUT1 in human MCF7 cells assessed as ATP production incubated for 24 hrs in presence of 0.1 mM glucose. The class given is cell-based.
Data set [18] concerns MCF7. The data set is described as follows: Induction of cell cycle arrest in human MCF7 cells assessed as accumulation of cells at G2/M phase at 20 uM by propidium iodide staining based flow cytometry (reference value: 9.72%). Conditions: time 30 min, 0.5 h. It is filed as functional.
Data set [19] concerns the target T1, Solute carrier family 2, facilitated glucose transporter member 1 (Homo sapiens). Nature of the data set: Inhibition of GLUT1 in human MCF7 cells assessed as reduction in maximal respiratory capacity at 5 to 20 uM incubated for 24 hrs by Seahorse XFe96 analyzer. Particulars: dose 5-20 µM. The class given is cell-based.
Data set [20] has the same target. Nature of the data set: Inhibition of human GLUT1 in HEK293FT cells assessed as reduction in glucose uptake at 10 uM incubated for 24 hrs and further incubated for 1 hr under dark condition by flow cytometry. The class given is cell-based. Conditions: time 25.0 hrs.
The subject of data set [21] is MCF7. Nature of the data set: Induction of apoptosis in human MCF7 cells assessed as necrotic cells at 20 uM incubated for 24 hrs by Annexin V-FITC/7AAD staining based flow cytometery (reference value: 0.019%). It is filed as functional.
For data set [22], the system named is MCF7. The data set is described as follows: Induction of apoptosis in human MCF7 cells assessed as early apoptotic cells at 5 uM incubated for 24 hrs by Annexin V-FITC/7AAD staining based flow cytometery (reference value: 0.50%). The class given is functional.
Data set [23] relates to MCF7. Nature of the data set: Induction of apoptosis in human MCF7 cells assessed as necrotic cells at 5 uM incubated for 24 hrs by Annexin V-FITC/7AAD staining based flow cytometery (reference value: 0.019%). The class given is functional.
For data set [24], the target named is T2, Solute carrier family 2, facilitated glucose transporter member 1. The data set is described as follows: Binding affinity to GLUT1 (unknown origin) assessed as dissociation constant at 800 uM by MST assay.
For data set [25], the system named is MCF7. Nature of the data set: Induction of cell cycle arrest in human MCF7 cells assessed as accumulation of cells at G2/M phase at 5 uM by propidium iodide staining based flow cytometry (reference value: 9.72%). Conditions: time 30 min, 0.5 h. The class given is functional.
Data set [26] deals with MCF7. Nature of the data set: Induction of apoptosis in human MCF7 cells assessed as viable cells at 5 uM incubated for 24 hrs by Annexin V-FITC/7AAD staining based flow cytometery (reference value: 98.8%). The class given is functional. Particulars: read-out: Activity.
For data set [27], the system named is MCF7. Nature of the data set: Induction of apoptosis in human MCF7 cells assessed as necrotic cells at 10 uM incubated for 24 hrs by Annexin V-FITC/7AAD staining based flow cytometery (reference value: 0.019%). The class given is functional.
Data set [28] deals with T1, Solute carrier family 2, facilitated glucose transporter member 1 (Homo sapiens). Nature of the data set: Inhibition of GLUT1 in human MCF7 cells assessed as reduction in lactate production measured after 24 hrs. It is filed as cell-based. Particulars: dose 5-20 µM.
Data set [29] concerns MCF7. The data set is described as follows: Induction of apoptosis in human MCF7 cells assessed as late apoptotic cells at 5 uM incubated for 24 hrs by Annexin V-FITC/7AAD staining based flow cytometery (reference value: 0.68%). The class given is functional.
For data set [30], the target named is T1, Solute carrier family 2, facilitated glucose transporter member 1 (Homo sapiens). The data set is described as follows: Inhibition of GLUT1 in human MCF7 cells assessed as reduction in GLUT1 degradation by CETSA assay. The class given is cell-based.
Data set [31] has as its system MCF7. The data set is described as follows: Anticancer activity against human MCF7 cells assessed as increase in cell apoptosis at 20 uM incubated for 48 hrs relative to control. The class given is functional.
In data set [32] the test system is MCF7. Nature of the data set: Induction of apoptosis in human MCF7 cells assessed as viable cells at 20 uM incubated for 24 hrs by Annexin V-FITC/7AAD staining based flow cytometery (reference value: 98.8%). The class given is functional. Conditions: read-out: Activity.
Data set [33] has as its target T1, Solute carrier family 2, facilitated glucose transporter member 1 (Homo sapiens). Nature of the data set: Inhibition of GLUTI (unknown origin).

Activity calls are given as the source filed them. The calls are words filed in the database; no cut-off is given here.

We go through seven compounds from ChEMBL document CHEMBL5344433, “Target Separation and Potential Anticancer Activity of Withanolide-Based Glucose Transporter Protein 1 Inhibitors from Physalis angulata var. villosa” (J Nat Prod, 2024).

Take `CC(=O)O[C@H]1C=C([C@H](C)[C@H]2CC(C)=C(C)C(=O)O2)[C@@]2(C)CC[C@H]3[C@@H](C[C@H]4O[C@]45[C@@H](O)C=CC(=O)[C@]35C)[C@@]12O`: the outcome in [1] was Active.

Take `CC(=O)O[C@H]1C[C@@](O)([C@H](C)[C@H]2CC(C)=C(C)C(=O)O2)[C@@]2(C)CC[C@H]3[C@@H](C[C@H]4O[C@]45[C@@H](O)C=CC(=O)[C@]35C)[C@@]12O`: the outcome in [1] was Active.

Regarding `CC(=O)O[C@H]1[C@@H]2O[C@]2([C@H](C)[C@H]2CC(CO)=C(C)C(=O)O2)[C@@]2(C)CCC3C(C[C@@H](O)[C@@]4(O)CC=CC(=O)[C@]34C)[C@@]12O` (some centres not stated), the Activity in data set [2] is 46.7%; in data set [3], 22%; in data set [5], 60%; in data set [6] it was “Dose-Dependent Effect”; in [8] it was 14.1%; in data set [9], 60%. Moreover, the Activity in [15] was 14.9%; in data set [18] it was 47.6%; in data set [21], 0.92%; in [22], 5.76%; in [23] it was 3.84%; in data set [25], 11.3%. Also, the Activity is 4.56% in data set [27], 15% in [29] and 15% in [31]. The inhibition entry in data set [4], in [19], in [20] and in [30] was “Active” throughout. Also, the “fold change (FC)” value in data set [7] came out at 2.8; in data set [11], 0.44; in [14] it was 0.4; in data set [16], 0.68. Besides, in data set [10], the IC50 – broadly, the concentration at which inhibition is half-maximal – at 24 h was 18 µM. Further, the half-inhibitory concentration (IC50) stood at 180 µM in data set [12] and 3.46 µM in data set [17]. Also, in data set [13], the viability at 10 µM is 34.6%. In addition, the dissociation constant (Kd) (usually the concentration at which binding is half-saturated) in [24] was 2.6 µM. Further, the viability at 5 µM in data set [26] came out at 75.4%. Also, in data set [28], the inhibition entry is “Dose-Dependent Effect”. In data set [32], the viability at 20 µM was found to be 24.2%.

On to `C[C@@]12C[C@H]3OC(=O)[C@@H]1CO[C@]14O[C@@]5([C@H]2C1=O)[C@@]3(C)OC(=O)[C@@]5(O)CC[C@H]1[C@H]4C[C@H]2O[C@]23CC=CC(=O)[C@]13C`, for which the outcome in data set [1] was Active.

For `CC(=O)O[C@H]1C[C@@](O)([C@H](C)[C@H]2CC(C)=C(C)C(=O)O2)[C@@]2(C)CC[C@H]3[C@@H](C[C@H]4O[C@]45CC=CC(=O)[C@]35C)[C@@]12O`, the outcome in data set [1] was Active. Moreover, the Kd in data set [24] is 2.6 µM. The inhibition entry in data set [30] was “Active”.

Regarding `CC(=O)O[C@H]1C=C([C@H](C)[C@H]2CC(C)=C(C)C(=O)O2)[C@@]2(C)CC[C@H]3C(C[C@@H](O)[C@@]4(Cl)CC=CC(=O)[C@]34C)[C@]12O` (some centres not stated), in data set [33], the inhibition result was “Active”.

In the case of `CC(=O)O[C@H]1C[C@H]([C@H](C)[C@@H]2OC(=O)C(C)=C(C)[C@@H]2O)[C@@]2(C)CCC3C(C[C@@H](O)[C@@]4(O)CC=CC(=O)[C@]34C)[C@@]12O` (some centres not stated), the outcome in [1] was Active. Besides, the Kd in data set [24] amounted to 2.4 µM. Moreover, the inhibition result in [33] and in [30] was “Active” throughout.
